Reference: patent US20170152239A1, “BENZAMIDE AND HETEROBENZAMIDE COMPOUNDS” (PFIZER INC., priority 2012, published 2017)

What was measured:
[1] = target: WT EZH2 (EZH2 4 protein complex: EZH2, EED, SUZ12, RbAp48) (Homo sapiens, UniProt Q15910); assay: WT EZH2 nucleosome assay; type: biochemical; conditions: compound at 20 μM; nucleosome assay
In short: (§1)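 Radiometric methyltransferase assay: 5 nM EZH2 four-protein complex, 1.5 μM 3H-SAM, 25 μg/mL HeLa oligonucleosomes, 50 nM recombinant H1 in 100 mM Tris pH 8.5, 4 mM DTT, 0.01% Tween-20. 60 min reaction, TCA quench, filter capture, scintillation counting; IC50 from 11-point 4-parameter fit; % effect at 20 μM.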

[2] = target: WT EZH2 (EZH2 4 protein complex: EZH2, EED, SUZ12, RbAp48) (Homo sapiens, UniProt O75530+Q09028+Q15022+Q15910); assay: WT EZH2 nucleosome assay; type: biochemical; conditions: nucleosome assay, 5 nM EZH2 4-protein complex, 1.5 μM SAM; read-out: WT EZH2 IC50
In short: as §1

WT EZH2 (EZH2 4 protein complex: EZH2, EED, SUZ12, RbAp48) (Homo sapiens, UniProt Q15910), sequence (Q15910 whole entry): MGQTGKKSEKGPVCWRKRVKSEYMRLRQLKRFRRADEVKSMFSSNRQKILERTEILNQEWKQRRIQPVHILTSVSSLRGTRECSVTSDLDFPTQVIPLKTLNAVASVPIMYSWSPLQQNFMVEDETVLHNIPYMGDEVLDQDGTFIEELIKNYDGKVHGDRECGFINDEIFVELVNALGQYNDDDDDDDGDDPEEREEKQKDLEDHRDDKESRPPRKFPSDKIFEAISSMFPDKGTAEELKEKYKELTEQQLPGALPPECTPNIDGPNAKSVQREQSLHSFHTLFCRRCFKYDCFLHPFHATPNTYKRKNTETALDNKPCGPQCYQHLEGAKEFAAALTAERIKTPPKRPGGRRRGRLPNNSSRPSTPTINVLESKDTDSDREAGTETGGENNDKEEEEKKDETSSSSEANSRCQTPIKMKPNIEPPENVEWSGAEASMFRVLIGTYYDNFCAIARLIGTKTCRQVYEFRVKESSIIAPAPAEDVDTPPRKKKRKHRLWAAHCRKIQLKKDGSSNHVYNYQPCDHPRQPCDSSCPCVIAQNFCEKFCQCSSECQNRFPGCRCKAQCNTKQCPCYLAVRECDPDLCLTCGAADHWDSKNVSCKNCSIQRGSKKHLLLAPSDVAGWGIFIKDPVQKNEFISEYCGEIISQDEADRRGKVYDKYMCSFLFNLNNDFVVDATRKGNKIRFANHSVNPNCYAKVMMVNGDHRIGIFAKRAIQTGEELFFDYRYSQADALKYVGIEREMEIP
WT EZH2 (EZH2 4 protein complex: EZH2, EED, SUZ12, RbAp48) (Homo sapiens, UniProt Q15910), sequence (O75530 whole entry partner): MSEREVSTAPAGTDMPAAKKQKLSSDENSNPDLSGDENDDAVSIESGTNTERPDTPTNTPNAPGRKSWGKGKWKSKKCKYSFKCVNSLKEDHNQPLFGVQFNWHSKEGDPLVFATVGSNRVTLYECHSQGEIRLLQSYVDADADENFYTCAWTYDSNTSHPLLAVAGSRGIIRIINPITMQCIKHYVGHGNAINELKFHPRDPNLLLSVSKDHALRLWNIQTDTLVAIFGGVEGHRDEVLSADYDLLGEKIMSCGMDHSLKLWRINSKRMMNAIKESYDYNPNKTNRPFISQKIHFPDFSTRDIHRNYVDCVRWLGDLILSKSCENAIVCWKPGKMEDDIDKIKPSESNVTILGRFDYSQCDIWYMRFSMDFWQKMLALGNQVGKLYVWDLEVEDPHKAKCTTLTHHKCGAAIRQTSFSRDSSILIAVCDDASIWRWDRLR
WT EZH2 (EZH2 4 protein complex: EZH2, EED, SUZ12, RbAp48) (Homo sapiens, UniProt Q15910), sequence (Q15022 whole entry partner): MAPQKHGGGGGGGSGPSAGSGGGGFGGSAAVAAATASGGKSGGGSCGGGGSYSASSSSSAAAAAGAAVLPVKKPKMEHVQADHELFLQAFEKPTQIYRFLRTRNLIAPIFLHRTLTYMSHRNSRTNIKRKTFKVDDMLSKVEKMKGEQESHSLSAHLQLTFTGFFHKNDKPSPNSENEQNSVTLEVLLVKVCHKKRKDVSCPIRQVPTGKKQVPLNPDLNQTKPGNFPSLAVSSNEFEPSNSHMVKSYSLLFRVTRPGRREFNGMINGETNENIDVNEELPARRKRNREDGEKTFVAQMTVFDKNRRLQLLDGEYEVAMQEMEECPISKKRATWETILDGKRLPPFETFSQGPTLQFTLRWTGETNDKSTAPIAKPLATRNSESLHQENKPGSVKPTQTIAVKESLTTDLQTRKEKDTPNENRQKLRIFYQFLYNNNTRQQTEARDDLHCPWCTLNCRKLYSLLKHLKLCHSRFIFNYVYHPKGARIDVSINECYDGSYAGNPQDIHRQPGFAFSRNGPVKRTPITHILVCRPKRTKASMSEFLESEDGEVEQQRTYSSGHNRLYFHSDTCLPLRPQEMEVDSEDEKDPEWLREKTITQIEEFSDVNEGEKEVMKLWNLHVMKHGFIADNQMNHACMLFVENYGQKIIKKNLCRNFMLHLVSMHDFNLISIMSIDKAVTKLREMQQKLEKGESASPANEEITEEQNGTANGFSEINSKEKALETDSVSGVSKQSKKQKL
WT EZH2 (EZH2 4 protein complex: EZH2, EED, SUZ12, RbAp48) (Homo sapiens, UniProt Q15910), sequence (Q09028 whole entry partner): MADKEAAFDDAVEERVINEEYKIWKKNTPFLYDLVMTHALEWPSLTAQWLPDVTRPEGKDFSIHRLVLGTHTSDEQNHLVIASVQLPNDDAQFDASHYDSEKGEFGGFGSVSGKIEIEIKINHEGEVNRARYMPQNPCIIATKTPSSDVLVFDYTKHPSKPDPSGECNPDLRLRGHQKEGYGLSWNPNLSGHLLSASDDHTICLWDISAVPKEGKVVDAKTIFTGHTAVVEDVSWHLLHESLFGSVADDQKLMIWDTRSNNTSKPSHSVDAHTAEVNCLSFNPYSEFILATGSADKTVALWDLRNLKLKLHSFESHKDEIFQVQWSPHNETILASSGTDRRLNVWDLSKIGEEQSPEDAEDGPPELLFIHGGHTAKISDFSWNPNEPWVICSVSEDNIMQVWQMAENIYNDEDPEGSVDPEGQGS
WT EZH2 (EZH2 4 protein complex: EZH2, EED, SUZ12, RbAp48) (Homo sapiens, UniProt O75530+Q09028+Q15022+Q15910), sequence (Q15910 whole entry): as the sequence (Q15910 whole entry) above
WT EZH2 (EZH2 4 protein complex: EZH2, EED, SUZ12, RbAp48) (Homo sapiens, UniProt O75530+Q09028+Q15022+Q15910), sequence (O75530 whole entry partner): as the sequence (O75530 whole entry partner) above
WT EZH2 (EZH2 4 protein complex: EZH2, EED, SUZ12, RbAp48) (Homo sapiens, UniProt O75530+Q09028+Q15022+Q15910), sequence (Q15022 whole entry partner): as the sequence (Q15022 whole entry partner) above
WT EZH2 (EZH2 4 protein complex: EZH2, EED, SUZ12, RbAp48) (Homo sapiens, UniProt O75530+Q09028+Q15022+Q15910), sequence (Q09028 whole entry partner): as the sequence (Q09028 whole entry partner) above

Row | SMILES | % Effect in WT EZH2 at 20 μM [1] [%] | IC50 [2] [µM]
1 | CCCc1c(OC)cccc1C(=O)NCc1c(C)cc(C)[nH]c1=O [Example 128, N-[(4,6-dimethyl-2-oxo-1,2-dihydropyridin-3-yl)methyl]-3-methoxy-2-propylbenzamide] | 38.993 | 54.3
2 | Cc1cc(C)c(CNC(=O)c2c(Cl)ccc(OCCN3CCCC3)c2Cl)c(=O)[nH]1 [Example 129, 2,6-dichloro-N-[(4,6-dimethyl-2-oxo-1,2-dihydropyridin-3-yl)methyl]-3-(2-pyrrolidin-1-ylethoxy)benza-mide] | 32.145 | 54.3
3 | Cc1cc(C)c(CNC(=O)c2ccnc(OC(C)C)c2F)c(=O)[nH]1 [Example 138, N-[(4,6-dimethyl-2-oxo-1,2-dihydropyridin-3-yl)methyl]-3-fluoro-2-isopropoxyiso-nicotinamide] | 44.736 | 172

Now from value to compound:

Row | % Effect in WT EZH2 at 20 μM [1] [%] | IC50 [2] [µM] | SMILES
4 | 43.834 | 27.1 | COc1c(OC(C)C)cccc1C(=O)NCc1c(C)cc(C)[nH]c1=O [Example 113, N-[(4,6-dimethyl-2-oxo-1,2-dihydropyridin-3-yl)methyl]-3-isopropoxy-2-methoxy-benzamide]
5 | 44.087 | 37.4 | COc1ccc(OC)c(C(=O)NCc2c(C)cc(C)[nH]c2=O)c1Cl [Example 119, 2-chloro-N-[(4,6-dimethyl-2-oxo-1,2-dihydropyridin-3-yl)methyl]-3,6-dimethoxy-benzamide]
6 | 38.121 | 52 | COc1cc(OC)c(Cl)c(C(=O)NCc2c(C)cc(C)[nH]c2=O)c1Cl [Example 126, 2,6-dichloro-N-[(4,6-dimethyl-2-oxo-1,2-dihydropyridin-3-yl)methyl]-3,5-dimethoxybenz-amide]
7 | 35.052 | 53.3 | COc1ccc(C(=O)NCc2c(C)cc(C)[nH]c2=O)c(Cl)c1OC [Example 127, 2-chloro-N-[(4,6-dimethyl-2-oxo-1,2-dihydropyridin-3-yl)methyl]-3,4-dimethoxy-benzamide]
8 | 20.924 | 167 | COc1cccc(C(=O)NCc2c(C)cc(C)[nH]c2=O)c1F [Example 137, N-[(4,6-dimethyl-2-oxo-1,2-dihydropyridin-3-yl)methyl]-2-fluoro-3-methoxybenz-amide]
